Laboratory results reported in patent US20050025830A1, “Drug delivery device comprising an active compound and method for releasing an active compound from a drug delivery device” (Technische Universiteit Eindhoven, priority 2003, published 2005).

Assays:
[1] = Ultrasound-induced release of ibuprofen from polymer disc into physiological buffer; format: physicochemical; conditions: PLAGA 50/50 disc, ibuprofen 10% (m/m)
Procedure: An object consisting of a pressed circular disc with a diameter of 2 cm and thickness of 2 mm was provided with a thermocouple in the middle and was then placed in a holder in a vessel containing 0.5 litre physiological buffer. […] The PLAGA was purchased from Purac Biochem, The Netherlands. The glass transition temperature of the matrix of poly(lactic acid-co-glycolic acid) used was 12.7° C. (as compared to Example 1 where a Tg of 43° C. is disclosed. This decrease of the Tg is the result of a higher loading of ibuprofen). The disc was irradiated perpendicularly to the surface with a beam of ultrasonic sound with a power of 4 W and a frequency of 10^6 Hz (1 MHz), the probe for generating the ultrasound being 28 mm away from the disc. The speed of the release of ibuprofen into the physiological buffer was determined as a function of time. Both the temperature of the buffer and the temperature in the disc were measured continuously. The irradiation with ultrasonic sound was applied in an alternating manner, periods of irradiation of 120 minutes being alternated with periods of 60 minutes without irradiation.

[2] = Concentration of ibuprofen in blood after subcutaneous implantation of disc and alternating ultrasound irradiation; format: in vivo; conditions: p(BMA-MMA) disc, ibuprofen 3% (m/m), Lewis rat
Text: A pressed circular disc of p(BMA-MMA) with ibuprofen incorporated in the matrix with a mass ratio of 3% (m/m), as described in example 1, was implanted subcutaneously in a Lewis rat. On both sides of the disc a thermocouple was implanted to continuously measure the temperature at the surface of the disc. One hour after implantation the disc was irradiated perpendicularly to the surface with a beam of ultrasonic sound with a power of 0.7 W, a frequency of 10^6 Hz (1 MHz), and a duty cycle of 70%, the probe for generating the ultrasound touching the skin of the rat. A standard physiotherapeutic hydrogel was used in between the skin and the probe. The irradiation with ultrasonic sound was applied in an alternating manner, periods of irradiation of 30 minutes being alternated with periods of 30 minutes without irradiation.
Blood samples were taken each 10 minutes during irradiation and each 20 minutes in the periods without irradiation to determine concentration of ibuprofen in the blood stream as a function of time. After 30 minutes irradiation the concentration of ibuprofen was 0.9 μg/ml, after irradiation the plasma concentration went below 0.01 μg/ml.

[3] = Release of active compound from pressed polymer disc into physiological buffer in shaking bath at 20° C. and 50° C.; format: physicochemical; conditions: p(BMA-MMA) disc with 75 mol % pBMA, ibuprofen 5% (m/m)

## CC(C)Cc1ccc(C(C)C(=O)O)cc1 (stereo not drawn) [ibuprofen]
[1]
  release of ibuprofen after stopping the irradiation: fell virtually immediately to the base value
[1]; without irradiation (base value), 8° C.
  speed of release of ibuprofen from the disc: less than 1×10^−7 gram/minute
[2]; after irradiation (period without irradiation)
  plasma concentration of ibuprofen: below 0.01 μg/ml
[2]; blood, sc, after 30 minutes irradiation (0.7 W, 1 MHz, duty cycle 70%), read-out: concentration of ibuprofen in the blood stream
  concentration at 30 min: 0.9 µg/mL
[3]; 20° C.
  release rate of ibuprofen into the physiological buffer: 0.36 nmol/h
[3]; 50° C.
  release rate of ibuprofen into the physiological buffer: 10 nmol/h
